Reference: the supplement of paper PMC13207355

Tests used:
Conditions in all cases: exposure time: 72 h
[1] = system: E21 (patient-derived glioblastoma stem cells of mesenchymal subtype); assay: surviving fraction (nuclei count normalised to DMSO); higher = more cells surviving (less toxic)
[2] = system: FT3469 (normal neural stem cell line); assay: as above
[3] = system: E57 (patient-derived glioblastoma stem cells of mesenchymal subtype); assay: as above
[4] = system: E34 (patient-derived glioblastoma stem cells of proneural subtype); assay: as above
[5] = system: E28 (patient-derived glioblastoma stem cells of classical subtype); assay: as above
[6] = system: E13 (patient-derived glioblastoma stem cells of classical subtype); assay: as above
[7] = system: E31 (patient-derived glioblastoma stem cells of proneural subtype); assay: as above
[8] = system: E21; assay: phenotypic distance (Euclidean, principal components) from DMSO controls (arbitrary units); higher = stronger morphological change
[9] = system: FT3469; assay: as above
[10] = system: E57; assay: as above
[11] = system: E34; assay: as above
[12] = system: E28; assay: as above
[13] = system: E13; assay: as above
[14] = system: E31; assay: as above
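Wherever phenotypic distance (Euclidean, principal components) from DMSO controls is given: cell Painting imaging in 384-well plates, CellProfiler features reduced to at least 20 principal components, Euclidean distance versus same-plate DMSO vehicle wells (0.1% v/v), median over six images per well.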
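Wherever surviving fraction (nuclei count normalised to DMSO) is given: nuclei counted by high-content imaging of Hoechst-stained cells in laminin-coated 384-well plates, relative to 0.1% DMSO vehicle wells, with staurosporine as cell-death control.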

In the case of Clc1ccc(CSC(Cn2ccnc2)c2ccc(Cl)cc2Cl)cc1 (stereo unspecified) [Sulconazole nitrate], the surviving fraction ([1]; 4.1 nM) is reported as 0.956, the surviving fraction ([1]; 12.3 nM) is reported as 1.01 and the surviving fraction ([1]; 37 nM) is reported as 1.03. The surviving fraction ([1]; 111.1 nM) was 0.956, the surviving fraction ([1]; 333.3 nM) was 0.962 and the surviving fraction ([1]; 1000 nM) was 0.952. For the same compound, the surviving fraction ([1]; 3000 nM) was 0.859, the surviving fraction ([2]; 4.1 nM) was 0.831 and the surviving fraction ([2]; 12.3 nM) was 1.03. It also gave a surviving fraction ([2]; 37 nM) of 0.945, a surviving fraction ([2]; 111.1 nM) of 0.801 and a surviving fraction ([2]; 333.3 nM) of 0.934. The surviving fraction ([2]; 1000 nM) was 0.869, the surviving fraction ([2]; 3000 nM) was 0.734 and the surviving fraction ([3]; 4.1 nM) was 0.975. It also gave a surviving fraction ([3]; 12.3 nM) of 0.945, a surviving fraction ([3]; 37 nM) of 0.995 and a surviving fraction ([3]; 111.1 nM) of 0.972. It also gave a surviving fraction ([3]; 333.3 nM) of 1.07, a surviving fraction ([3]; 1000 nM) of 1.03 and a surviving fraction ([3]; 3000 nM) of 0.934. The surviving fraction ([4]; 4.1 nM) was 0.824, the surviving fraction ([4]; 12.3 nM) was 1.02 and the surviving fraction ([4]; 37 nM) was 0.954. For the same compound, the surviving fraction ([4]; 111.1 nM) was 0.957, the surviving fraction ([4]; 333.3 nM) was 0.909 and the surviving fraction ([4]; 1000 nM) was 0.932. For the same compound, the surviving fraction ([4]; 3000 nM) was 0.766, the surviving fraction ([5]; 4.1 nM) was 0.969 and the surviving fraction ([5]; 12.3 nM) was 0.978. For the same compound, the surviving fraction ([5]; 37 nM) was 0.902, the surviving fraction ([5]; 111.1 nM) was 0.886 and the surviving fraction ([5]; 333.3 nM) was 0.956. For the same compound, the surviving fraction ([5]; 1000 nM) was 0.917, the surviving fraction ([5]; 3000 nM) was 0.839 and the surviving fraction ([6]; 4.1 nM) was 0.897. It also gave a surviving fraction ([6]; 12.3 nM) of 0.833, a surviving fraction ([6]; 37 nM) of 0.964 and a surviving fraction ([6]; 111.1 nM) of 0.887. For the same compound, the surviving fraction ([6]; 333.3 nM) was 0.841, the surviving fraction ([6]; 1000 nM) was 0.82 and the surviving fraction ([6]; 3000 nM) was 0.799. It also gave a surviving fraction ([7]; 4.1 nM) of 0.929, a surviving fraction ([7]; 12.3 nM) of 0.922 and a surviving fraction ([7]; 37 nM) of 1.01. The surviving fraction ([7]; 111.1 nM) was 1.02, the surviving fraction ([7]; 333.3 nM) was 0.984 and the surviving fraction ([7]; 1000 nM) was 1.09. It also gave a surviving fraction ([7]; 3000 nM) of 1.17, a phenotypic distance ([8]; 4.1 nM) of 0.971 and a phenotypic distance ([8]; 12.3 nM) of 4.31. The phenotypic distance ([8]; 37 nM) was 0.531, the phenotypic distance ([8]; 111.1 nM) was 0.857 and the phenotypic distance ([8]; 333.3 nM) was 1.11. The phenotypic distance ([8]; 1000 nM) was 0.859, the phenotypic distance ([8]; 3000 nM) was 1.68 and the phenotypic distance ([9]; 4.1 nM) was 0.821. For the same compound, the phenotypic distance ([9]; 12.3 nM) was 0.617, the phenotypic distance ([9]; 37 nM) was 0.893 and the phenotypic distance ([9]; 111.1 nM) was 0.999. The phenotypic distance ([9]; 333.3 nM) was 1.06, the phenotypic distance ([9]; 1000 nM) was 0.92 and the phenotypic distance ([9]; 3000 nM) was 1.39. For the same compound, the phenotypic distance ([10]; 4.1 nM) was 0.709, the phenotypic distance ([10]; 12.3 nM) was 0.952 and the phenotypic distance ([10]; 37 nM) was 0.398. It also gave a phenotypic distance ([10]; 111.1 nM) of 0.55, a phenotypic distance ([10]; 333.3 nM) of 0.671 and a phenotypic distance ([10]; 1000 nM) of 0.779. For the same compound, the phenotypic distance ([10]; 3000 nM) was 1.99, the phenotypic distance ([11]; 4.1 nM) was 1.17 and the phenotypic distance ([11]; 12.3 nM) was 0.4. The phenotypic distance ([11]; 37 nM) was 0.413, the phenotypic distance ([11]; 111.1 nM) was 0.586 and the phenotypic distance ([11]; 333.3 nM) was 0.864. For the same compound, the phenotypic distance ([11]; 1000 nM) was 0.895, the phenotypic distance ([11]; 3000 nM) was 1.02 and the phenotypic distance ([12]; 4.1 nM) was 0.745. It also gave a phenotypic distance ([12]; 12.3 nM) of 0.557, a phenotypic distance ([12]; 37 nM) of 0.545 and a phenotypic distance ([12]; 111.1 nM) of 0.553. It also gave a phenotypic distance ([12]; 333.3 nM) of 0.469, a phenotypic distance ([12]; 1000 nM) of 0.567 and a phenotypic distance ([12]; 3000 nM) of 0.697. It also gave a phenotypic distance ([13]; 4.1 nM) of 0.507, a phenotypic distance ([13]; 12.3 nM) of 0.659 and a phenotypic distance ([13]; 37 nM) of 0.68. For the same compound, the phenotypic distance ([13]; 111.1 nM) was 0.822, the phenotypic distance ([13]; 333.3 nM) was 1.02 and the phenotypic distance ([13]; 1000 nM) was 1.17. It also gave a phenotypic distance ([13]; 3000 nM) of 0.957, a phenotypic distance ([14]; 4.1 nM) of 0.532 and a phenotypic distance ([14]; 12.3 nM) of 0.425. It also gave a phenotypic distance ([14]; 37 nM) of 0.596, a phenotypic distance ([14]; 111.1 nM) of 0.731 and a phenotypic distance ([14]; 333.3 nM) of 1.14. The phenotypic distance ([14]; 1000 nM) was 1.17 and the phenotypic distance ([14]; 3000 nM) was 1.4.
Clc1ccc(COC(Cn2ccnc2)c2ccc(Cl)cc2Cl)cc1 (stereo unspecified) [Econazole nitrate] was tested, and the surviving fraction ([1]; 4.1 nM) was 1.11, the surviving fraction ([1]; 12.3 nM) was 0.967 and the surviving fraction ([1]; 37 nM) was 0.99. For the same compound, the surviving fraction ([1]; 111.1 nM) was 1.03, the surviving fraction ([1]; 333.3 nM) was 1.01 and the surviving fraction ([1]; 1000 nM) was 1.11. It also gave a surviving fraction ([1]; 3000 nM) of 1.18, a surviving fraction ([2]; 4.1 nM) of 0.824 and a surviving fraction ([2]; 12.3 nM) of 0.949. For the same compound, the surviving fraction ([2]; 37 nM) was 1.04, the surviving fraction ([2]; 111.1 nM) was 1.03 and the surviving fraction ([2]; 333.3 nM) was 0.854. The surviving fraction ([2]; 1000 nM) was 0.902, the surviving fraction ([2]; 3000 nM) was 0.864 and the surviving fraction ([3]; 4.1 nM) was 1.02. For the same compound, the surviving fraction ([3]; 12.3 nM) was 1.04, the surviving fraction ([3]; 37 nM) was 1.07 and the surviving fraction ([3]; 111.1 nM) was 1.06. It also gave a surviving fraction ([3]; 333.3 nM) of 1.09, a surviving fraction ([3]; 1000 nM) of 1.03 and a surviving fraction ([3]; 3000 nM) of 1.05. The surviving fraction ([4]; 4.1 nM) was 0.983, the surviving fraction ([4]; 12.3 nM) was 1.08 and the surviving fraction ([4]; 37 nM) was 1.01. It also gave a surviving fraction ([4]; 111.1 nM) of 1.17, a surviving fraction ([4]; 333.3 nM) of 1.03 and a surviving fraction ([4]; 1000 nM) of 1.11. It also gave a surviving fraction ([4]; 3000 nM) of 0.957, a surviving fraction ([5]; 4.1 nM) of 1.06 and a surviving fraction ([5]; 12.3 nM) of 1.03. For the same compound, the surviving fraction ([5]; 37 nM) was 1.06, the surviving fraction ([5]; 111.1 nM) was 0.943 and the surviving fraction ([5]; 333.3 nM) was 1.12. It also gave a surviving fraction ([5]; 1000 nM) of 0.941, a surviving fraction ([5]; 3000 nM) of 0.965 and a surviving fraction ([6]; 4.1 nM) of 0.964. The surviving fraction ([6]; 12.3 nM) was 1.05, the surviving fraction ([6]; 37 nM) was 0.999 and the surviving fraction ([6]; 111.1 nM) was 1.11. It also gave a surviving fraction ([6]; 333.3 nM) of 1.08, a surviving fraction ([6]; 1000 nM) of 0.997 and a surviving fraction ([6]; 3000 nM) of 0.967. For the same compound, the surviving fraction ([7]; 4.1 nM) was 1.03, the surviving fraction ([7]; 12.3 nM) was 0.985 and the surviving fraction ([7]; 37 nM) was 0.969. The surviving fraction ([7]; 111.1 nM) was 0.924, the surviving fraction ([7]; 333.3 nM) was 1.08 and the surviving fraction ([7]; 1000 nM) was 1.17. For the same compound, the surviving fraction ([7]; 3000 nM) was 1.14, the phenotypic distance ([8]; 4.1 nM) was 0.651 and the phenotypic distance ([8]; 12.3 nM) was 0.516. The phenotypic distance ([8]; 37 nM) was 0.785, the phenotypic distance ([8]; 111.1 nM) was 0.844 and the phenotypic distance ([8]; 333.3 nM) was 0.917. For the same compound, the phenotypic distance ([8]; 1000 nM) was 0.797, the phenotypic distance ([8]; 3000 nM) was 1.31 and the phenotypic distance ([9]; 4.1 nM) was 0.434. For the same compound, the phenotypic distance ([9]; 12.3 nM) was 0.211, the phenotypic distance ([9]; 37 nM) was 0.645 and the phenotypic distance ([9]; 111.1 nM) was 0.741. The phenotypic distance ([9]; 333.3 nM) was 0.628, the phenotypic distance ([9]; 1000 nM) was 0.747 and the phenotypic distance ([9]; 3000 nM) was 0.632. The phenotypic distance ([10]; 4.1 nM) was 0.324, the phenotypic distance ([10]; 12.3 nM) was 0.67 and the phenotypic distance ([10]; 37 nM) was 0.501. The phenotypic distance ([10]; 111.1 nM) was 0.756, the phenotypic distance ([10]; 333.3 nM) was 0.858 and the phenotypic distance ([10]; 1000 nM) was 1.1. It also gave a phenotypic distance ([10]; 3000 nM) of 1.45, a phenotypic distance ([11]; 4.1 nM) of 0.901 and a phenotypic distance ([11]; 12.3 nM) of 0.505. For the same compound, the phenotypic distance ([11]; 37 nM) was 0.479, the phenotypic distance ([11]; 111.1 nM) was 1.39 and the phenotypic distance ([11]; 333.3 nM) was 0.912. For the same compound, the phenotypic distance ([11]; 1000 nM) was 1.29, the phenotypic distance ([11]; 3000 nM) was 1.17 and the phenotypic distance ([12]; 4.1 nM) was 0.359. For the same compound, the phenotypic distance ([12]; 12.3 nM) was 0.539, the phenotypic distance ([12]; 37 nM) was 0.504 and the phenotypic distance ([12]; 111.1 nM) was 0.446. It also gave a phenotypic distance ([12]; 333.3 nM) of 0.803, a phenotypic distance ([12]; 1000 nM) of 0.72 and a phenotypic distance ([12]; 3000 nM) of 0.946. It also gave a phenotypic distance ([13]; 4.1 nM) of 0.86, a phenotypic distance ([13]; 12.3 nM) of 0.584 and a phenotypic distance ([13]; 37 nM) of 0.567. For the same compound, the phenotypic distance ([13]; 111.1 nM) was 1.07, the phenotypic distance ([13]; 333.3 nM) was 1.37 and the phenotypic distance ([13]; 1000 nM) was 0.962. It also gave a phenotypic distance ([13]; 3000 nM) of 1.16, a phenotypic distance ([14]; 4.1 nM) of 0.819 and a phenotypic distance ([14]; 12.3 nM) of 0.415. The phenotypic distance ([14]; 37 nM) was 0.765, the phenotypic distance ([14]; 111.1 nM) was 0.767 and the phenotypic distance ([14]; 333.3 nM) was 0.871. For the same compound, the phenotypic distance ([14]; 1000 nM) was 1.4 and the phenotypic distance ([14]; 3000 nM) was 1.39.
